The text below walks through data of patent US8431591B2, “R(−)-2-methoxy-11-hydroxyaporphine and derivatives thereof” (The McLean Hospital Corporation, priority 2007, dated 2013).

One assay deals with D2 receptor. The following applies: Gao et al., J. Med. Chem. 33:1800 (1990); cited from earlier work.
The conditions of assay [1]: following a single dose; cited from earlier work.
Another assay has as its target dopamine D1 receptor (Rattus norvegicus, UniProt P18901). Kind of assay: Radioligand competition assay, affinity at rat D1 receptors ([3H]SCH23390). It counts as binding. To be noted: radioligand [3H]SCH23390.
The next assay concerns the target dopamine D2 receptor (Rattus norvegicus, UniProt P61169). Kind of assay: Radioligand competition assay, affinity at rat D2 receptors ([3H]nemonapride). It counts as binding. (In general: In a radioligand displacement assay an active substance lowers the binding of a labelled ligand.)

Read-outs that look alike come from different tables or passages of the source.

dopamine D2 receptor, sequence (P61169 whole entry): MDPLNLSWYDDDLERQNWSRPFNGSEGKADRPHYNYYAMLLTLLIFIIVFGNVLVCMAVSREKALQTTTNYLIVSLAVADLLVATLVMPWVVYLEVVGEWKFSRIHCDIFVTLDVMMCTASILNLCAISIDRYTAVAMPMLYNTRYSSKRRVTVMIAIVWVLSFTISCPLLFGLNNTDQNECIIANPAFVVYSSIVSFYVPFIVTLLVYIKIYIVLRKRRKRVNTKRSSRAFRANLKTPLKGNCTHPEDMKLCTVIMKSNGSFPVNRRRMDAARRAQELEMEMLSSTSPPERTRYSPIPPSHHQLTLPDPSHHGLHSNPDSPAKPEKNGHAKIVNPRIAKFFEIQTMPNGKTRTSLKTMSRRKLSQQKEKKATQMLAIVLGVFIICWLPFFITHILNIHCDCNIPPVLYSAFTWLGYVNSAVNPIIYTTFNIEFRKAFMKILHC
dopamine D1 receptor, sequence (P18901 whole entry): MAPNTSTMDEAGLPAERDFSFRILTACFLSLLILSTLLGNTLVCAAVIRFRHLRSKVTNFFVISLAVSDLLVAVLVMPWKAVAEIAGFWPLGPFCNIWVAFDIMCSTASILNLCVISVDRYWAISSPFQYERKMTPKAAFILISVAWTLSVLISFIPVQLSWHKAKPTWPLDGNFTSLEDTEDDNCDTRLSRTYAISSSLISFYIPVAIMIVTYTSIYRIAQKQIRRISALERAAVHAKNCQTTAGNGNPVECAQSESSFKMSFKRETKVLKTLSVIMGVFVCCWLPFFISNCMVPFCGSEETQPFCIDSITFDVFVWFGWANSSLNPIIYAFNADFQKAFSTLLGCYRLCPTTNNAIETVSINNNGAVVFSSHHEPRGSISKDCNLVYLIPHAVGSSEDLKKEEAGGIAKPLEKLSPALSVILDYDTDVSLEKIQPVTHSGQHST

As for `CCCN1CCc2cccc3c2[C@H]1Cc1cccc(O)c1-3` [Compound 2, R(−)-11-hydroxy-N-n-propylnoraporphine], the “D2 receptor affinity and selectivity (in words)” value in the assay on D2 receptor is “even higher affinity and selectivity for D2 receptor than apomorphine”.

For `CCCN1CCc2cc(O)cc3c2[C@H]1Cc1ccc(O)c(O)c1-3` [R(−)-2-OH-NPA, R(−)-2-hydroxy-N-n-propylnorapomorphine], in the assay with D2 receptor, the “D2 receptor affinity and selectivity (in words)” value is “among the most potent and highly selective agonists for the D2 receptor”.

`CN1CCc2cccc3c2[C@H]1Cc1ccc(O)c(O)c1-3` [apomorphine, R(−)-Apomorphine]: in assay [1], the duration of effects was 40 to 60 min and the onset of action was 5 to 15 min.

With `COc1cc2c3c(c1)-c1c(O)cccc1CC3N(C)CC2` (stereo not drawn) [Compound 3, 2-Methoxy-11-hydroxyaporphine], the Ki on dopamine D1 receptor is 46 ± 2.8 nM; at dopamine D2 receptor (rat receptors, radioligand [3H]nemonapride, read-out: Affinity at rat receptors, D2), 235 ± 32 nM.

On to `COc1cc2c3c(c1)-c1c(ccc(O)c1O)C[C@H]3N(C)CC2` [Compound 8], for which the Ki at dopamine D1 receptor stood at 6450 nM; at dopamine D2 receptor it was 1.3 ± 0.4 nM.

Take `CCCN1CCc2cc(OC)cc3c2[C@H]1Cc1ccc(O)c(O)c1-3` [Compound 1c, R(−)-2-methoxy-N-n-propylnorapomorphine]: the “D2 receptor affinity and selectivity (in words)” value with D2 receptor was “among the most potent and highly selective agonists for the D2 receptor”.
